The assay can be described thus: Venous thrombosis: venous stasis under hypercoagulation (Wessler), thrombus removed and weighed. The format is in vivo, male Wistar rats. The conditions noted are these: Rattus norvegicus, po, suspension in PEG 400, thrombosis induced 4 hours after treatment; for inhibition in vivo at 3 mg/kg: 3 mg/kg administered orally; for inhibition in vivo at 12.5 mg/kg: 12.5 mg/kg administered orally. As to the method: A venous stasis under hypercoagulation is produced according to the technique described by WESSLER et al. (J. Applied Physiol. 1959, p. 943-946). As in the technique described by J. HAUPMAN et al. (Thrombosis and Haemostasis 43(2), 1980, p. 118), the hypercoagulant used is a solution of activated factor X (Xa) supplied by Flow Laboratories (71 Knat per 12.5 ml of physiological serum).
The study is performed on unfasted male Wistar rats weighing 250 to 280 g, divided into groups of 10 animals each. The products to be tested are administered orally as a suspension in PEG 400. A thrombosis is induced 4 hours after this treatment and the thrombus formed is removed and weighed.
The results obtained at doses of 3 mg/kg or 12.5 mg/kg, administered orally, have been collated in Table II. The results obtained with the known products of the above-mentioned prior art have also been collated in this Table.

Structures are written as SMILES.

For 38 compounds, inhibition in vivo results are on record in patent US5101048A, “β-D-phenylthioxylosides, their method of preparation and their use as therapeutic agents” (Fournier Industrie et Sante, priority 1988, dated 1992).

In general, inhibition in vivo refers to the relative decrease from the control value, in per cent. High values mean a strong effect, low ones a weak effect. In turn, `N#Cc1ccc2cc(O[C@@H]3SC[C@@H](O)[C@H](O)[C@H]3O)ccc2c1` [Example 30, 2-(6-cyanonaphthalenyl) 5-thio-β-D-xylopyranoside] returned an inhibition in vivo at 3 mg/kg of 51%.

In the case of `O=[N+]([O-])c1cccc(S[C@@H]2SC[C@@H](O)[C@H](O)[C@H]2O)c1` [Example 12, 3-nitrophenyl 1,5-dithio-β-D-xylopyranoside], the inhibition in vivo at 12.5 mg/kg worked out at 69%.

In turn, `N#Cc1ccccc1S[C@@H]1SC[C@@H](O)[C@H](O)[C@H]1O` [Example 6, 2-cyanophenyl 1,5-dithio-β-D-xylopyranoside] came in with an inhibition in vivo at 3 mg/kg of 35% and an inhibition in vivo at 12.5 mg/kg of 88.6%.

With `N#Cc1c(O[C@@H]2SC[C@@H](O)[C@H](O)[C@H]2O)ccc2ccccc12` [Example 31, 2-(1-cyanonaphthalenyl) 5-thio-β-D-xylopyranoside], the inhibition in vivo at 3 mg/kg worked out at 28%.

As to `N#Cc1ccc(O[C@@H]2SC[C@@H](O)[C@H](O)[C@H]2O)cc1` [Example 22, 4-cyanophenyl 5-thio-β-D-xylopyranoside], 3 mg/kg produced 57% inhibition in vivo.

`CC(=O)Nc1ccc(S[C@@H]2SC[C@@H](O)[C@H](O)[C@H]2O)cc1` [Example 19, 4-acetamidophenyl 1,5-dithio-β-D-xylopyranoside] had an inhibition in vivo at 3 mg/kg of 61% and an inhibition in vivo at 12.5 mg/kg of 93%.

Take `O=[N+]([O-])c1ccccc1O[C@@H]1SC[C@@H](O)[C@H](O)[C@H]1O` [Example 28, 2-nitrophenyl 5-thio-β-D-xylopyranoside]: 3 mg/kg produced 51% inhibition in vivo and testing at 12.5 mg/kg gave an inhibition in vivo of 94%.

`O=[N+]([O-])c1ccc(S[C@@H]2SC[C@@H](O)[C@H](O)[C@H]2O)cc1` [Example 2, 4-nitrophenyl 1,5-dithio-β-D-xylopyranoside] gave an inhibition in vivo at 3 mg/kg of 35% and an inhibition in vivo at 12.5 mg/kg of 78%.

The compound `O[C@@H]1[C@@H](O)[C@H](Sc2ccccc2C(F)(F)F)SC[C@H]1O` [Example 13, 2-trifluoromethylphenyl 1,5-dithio-β-D-xylopyranoside] came in with an inhibition in vivo at 12.5 mg/kg of 23%.

On to `CC(=O)c1ccc(S[C@@H]2SC[C@@H](O)[C@H](O)[C@H]2O)cc1` [Example 11, 4-acetylphenyl 1,5-dithio-β-D-xylopyranoside], for which the inhibition in vivo at 3 mg/kg was found to be 47% and 12.5 mg/kg produced 98.3% inhibition in vivo.

`Nc1cccc(S[C@@H]2SC[C@@H](O)[C@H](O)[C@H]2O)c1` [Example 21, 3-aminophenyl 1,5-dithio-β-D-xylopyranoside] had an inhibition in vivo at 3 mg/kg of 31%.

For `O=[N+]([O-])c1ccc(O[C@@H]2SC[C@@H](O)[C@H](O)[C@H]2O)cc1` [Example 23, 4-nitrophenyl 5-thio-β-D-xylopyranoside], the inhibition in vivo at 3 mg/kg came to 37.5% and testing at 12.5 mg/kg gave an inhibition in vivo of 94%.

`N#Cc1cccc(S[C@@H]2SC[C@@H](O)[C@H](O)[C@H]2O)c1` [Example 5, 3-cyanophenyl 1,5-dithio-β-D-xylopyranoside]: the inhibition in vivo at 3 mg/kg was found to be 28% and the inhibition in vivo at 12.5 mg/kg was determined as 79.5%.

Compound `CC(=O)c1ccccc1O[C@@H]1SC[C@@H](O)[C@H](O)[C@H]1O` [Example 29, 2-acetylphenyl 5-thio-β-D-xylopyranoside] gave an inhibition in vivo at 3 mg/kg of 26%.

As for `CC(=O)O[C@@H]1[C@@H](OC(C)=O)[C@H](OC(C)=O)CS[C@H]1Oc1cccc(C(C)=O)c1` [Example 25a, 3-acetylphenyl 2,3,4-tri-O-acetyl-5-thio-β-D-xylopyranoside], the inhibition in vivo at 3 mg/kg came to 52%.

Regarding `CC(=O)O[C@@H]1[C@@H](OC(C)=O)[C@H](OC(C)=O)CS[C@H]1Oc1cccc(C#N)c1` [Example 27a, 3-cyanophenyl 2,3,4-tri-O-acetyl-5-thio-β-D-xylopyranoside], the inhibition in vivo at 3 mg/kg was 57%.

Regarding `CC(=O)O[C@@H]1[C@@H](OC(C)=O)[C@H](OC(C)=O)CS[C@H]1Oc1ccc([N+](=O)[O-])cc1` [Example 23a, 4-nitrophenyl 2,3,4-tri-O-acetyl-5-thio-β-D-xylopyranoside], 3 mg/kg produced 44% inhibition in vivo.

Turning to `N#Cc1ccc(S[C@@H]2SC[C@@H](O)[C@H](O)[C@H]2O)c(C#N)c1` [Example 16, 2,4-dicyanophenyl 1,5-dithio-β-D-xylopyranoside], the inhibition in vivo at 3 mg/kg came to 42.5% and the inhibition in vivo at 12.5 mg/kg was determined as 99.5%.

`N#Cc1ccccc1O[C@@H]1SC[C@@H](O)[C@H](O)[C@H]1O` [Example 26, 2-cyanophenyl 5-thio-β-D-xylopyranoside] displayed an inhibition in vivo at 3 mg/kg of 63.5% and an inhibition in vivo at 12.5 mg/kg of 96%.

Turning to `CC(=O)Nc1ccc(S[C@@H]2SC[C@@H](OC(C)=O)[C@H](OC(C)=O)[C@H]2OC(C)=O)cc1` [Example 19a, 4-acetamidophenyl 2,3,4-tri-O-acetyl-1,5dithio-β-D-xylopyranoside], 3 mg/kg produced 66% inhibition in vivo.

`N#Cc1ccc2cc(S[C@@H]3SC[C@@H](O)[C@H](O)[C@H]3O)ccc2c1` [Example 8, 2-(6-cyanonaphthalenyl) 1,5-dithio-β-D-xylopyranoside] came in with an inhibition in vivo at 3 mg/kg of 31% and an inhibition in vivo at 12.5 mg/kg of 94.7%.

The compound `CC(=O)O[C@@H]1[C@@H](OC(C)=O)[C@H](Sc2ccc(C#N)cc2C#N)SC[C@H]1OC(C)=O` [Example 16a, 2,4-dicyanophenyl 2,3,4-tri-O-acetyl-1,5-dithio-β-D-xylopyranoside] yielded an inhibition in vivo at 12.5 mg/kg of 72.8%.

With `N#Cc1cc(C#N)c(S[C@@H]2SC[C@@H](O)[C@H](O)[C@H]2O)c(C#N)c1` [Example 17, 2,4,6-tricyanophenyl 1,5-dithio-β-D-xylopyranoside], the inhibition in vivo at 3 mg/kg came to 8% and the inhibition in vivo at 12.5 mg/kg turned out to be 40%.

As for `CC(=O)c1cccc(O[C@@H]2SC[C@@H](O)[C@H](O)[C@H]2O)c1` [Example 25, 3-acetylphenyl 5-thio-β-D-xylopyranoside], the inhibition in vivo at 3 mg/kg worked out at 44.5%.

In turn, `N#Cc1ccc(-c2ccc(S[C@@H]3SC[C@@H](O)[C@H](O)[C@H]3O)cc2)cc1` [Example 14, 4-(4-cyanophenyl)phenyl 1,5-dithio-β-D-xylopyranoside] returned an inhibition in vivo at 3 mg/kg of 27% and an inhibition in vivo at 12.5 mg/kg of 86%.

The compound `Nc1ccc(S[C@@H]2SC[C@@H](O)[C@H](O)[C@H]2O)cc1` [Example 18, 4-aminophenyl 1,5-dithio-β-D-xylopyranoside] had an inhibition in vivo at 3 mg/kg of 30% and an inhibition in vivo at 12.5 mg/kg of 93%.

In turn, `CC(=O)O[C@@H]1[C@@H](OC(C)=O)[C@H](OC(C)=O)CS[C@H]1Oc1ccc(C#N)cc1` [Example 22a, 4-cyanophenyl 2,3,4-tri-O-acetyl-5-thio-β-D-xylopyranoside] displayed an inhibition in vivo at 3 mg/kg of 66%.

Take `N#Cc1cccc(O[C@@H]2SC[C@@H](O)[C@H](O)[C@H]2O)c1` [Example 27, 3-cyanophenyl 5-thio-β-D-xylopyranoside]: at 3 mg/kg the inhibition in vivo was 66% and at 12.5 mg/kg the inhibition in vivo was 98%.

Take `N#Cc1ccc(S[C@@H]2SC[C@@H](O)[C@H](O)[C@H]2O)cc1` [Example 1, 4-cyanophenyl 1,5-dithio-β-D-xylopyranoside]: testing at 3 mg/kg gave an inhibition in vivo of 53% and the inhibition in vivo at 12.5 mg/kg came to 90%.

In the case of `O=[N+]([O-])c1ccccc1S[C@@H]1SC[C@@H](O)[C@H](O)[C@H]1O` [Example 7, 2-nitrophenyl 1,5-dithio-β-D-xylopyranoside], the inhibition in vivo at 3 mg/kg is 33% and the inhibition in vivo at 12.5 mg/kg was determined as 96.7%.

On to `O[C@@H]1[C@@H](O)[C@H](Sc2ccc3ccccc3c2)SC[C@H]1O` [Example 3, 2-naphthalenyl 1,5-dithio-β-D-xylopyranoside], for which 12.5 mg/kg produced 38% inhibition in vivo.

Turning to `COc1cc(S[C@@H]2SC[C@@H](OC(C)=O)[C@H](OC(C)=O)[C@H]2OC(C)=O)cc(OC)c1OC` [Example 10a, 3,4,5-trimethoxyphenyl 2,3,4-tri-O-acetyl-1,5-dithio-β-D-xylopyranoside], the inhibition in vivo at 12.5 mg/kg came out at 62%.

For `O=C(c1ccc(S[C@@H]2SC[C@@H](O)[C@H](O)[C@H]2O)cc1)C(F)(F)F` [Example 20, 4-trifluoroacetylphenyl 1,5-dithio-β-D-xylopyranoside], the inhibition in vivo at 3 mg/kg came to 49%.

The compound `CC(=O)c1ccc(O[C@@H]2SC[C@@H](O)[C@H](O)[C@H]2O)cc1` [Example 24, 4-acetylphenyl 5-thio-β-D-xylopyranoside] came in with an inhibition in vivo at 3 mg/kg of 55% and an inhibition in vivo at 12.5 mg/kg of 100%.

Take `O[C@@H]1[C@@H](O)[C@H](Sc2ccc(C(F)(F)F)cc2)SC[C@H]1O` [Example 4, 4-trifluoromethylphenyl 1,5-dithio-β-D-xylopyranoside]: the inhibition in vivo at 12.5 mg/kg is 66%.

`COc1cc(S[C@@H]2SC[C@@H](O)[C@H](O)[C@H]2O)cc(OC)c1OC` [Example 10, 3,4,5-trimethoxyphenyl 1,5-dithio-β-D-xylopyranoside] returned an inhibition in vivo at 12.5 mg/kg of 36.5%.

Turning to `CC(=O)O[C@@H]1[C@@H](OC(C)=O)[C@H](Sc2ccc(C#N)cc2)SC[C@H]1OC(C)=O` [Example 1a, 4-cyanophenyl 2,3,4-tri-O-acetyl-1,5-dithio-β-D-xylopyranoside], at 3 mg/kg the inhibition in vivo was 30% and testing at 12.5 mg/kg gave an inhibition in vivo of 90%.

`CC(=O)O[C@@H]1[C@@H](OC(C)=O)[C@H](OC(C)=O)CS[C@H]1Oc1ccc2ccccc2c1C#N` [Example 31a, 2-(1-cyanonaphthalenyl) 2,3,4-tri-O-acetyl-5-thio-β-D-xylopyranoside] displayed an inhibition in vivo at 3 mg/kg of 44.5%.
